According to article PMC3606385 (PLoS ONE, 2013):
“Also recorded” adds a separate entry of the source. Like-named read-outs stand apart in the source and are kept apart here. Each block holds one compound with its values, some of them ahead of it.

Legend:
Human 11β-HSD1 [1] = molecular target: T1, Human 11β-HSD1 (Homo sapiens, UniProt P28845); conditions: cited from earlier work
T1 construct: expressed in transfected cells; host or cells: CHOP cells (transient, FuGENE)

mouse 11β-HSD1 = conditions: cited from earlier work
Human 11β-HSD2 [2] = molecular target: T2, Human 11β-HSD2 (Homo sapiens, UniProt P80365); conditions: cited from earlier work
T2 construct: The rat and human kidney microsomes were used for 11β-HSD2 sources; tissue Gentest (Woburn, MA); host or cells: human kidney microsomes
T2 sequence (P80365 1-405): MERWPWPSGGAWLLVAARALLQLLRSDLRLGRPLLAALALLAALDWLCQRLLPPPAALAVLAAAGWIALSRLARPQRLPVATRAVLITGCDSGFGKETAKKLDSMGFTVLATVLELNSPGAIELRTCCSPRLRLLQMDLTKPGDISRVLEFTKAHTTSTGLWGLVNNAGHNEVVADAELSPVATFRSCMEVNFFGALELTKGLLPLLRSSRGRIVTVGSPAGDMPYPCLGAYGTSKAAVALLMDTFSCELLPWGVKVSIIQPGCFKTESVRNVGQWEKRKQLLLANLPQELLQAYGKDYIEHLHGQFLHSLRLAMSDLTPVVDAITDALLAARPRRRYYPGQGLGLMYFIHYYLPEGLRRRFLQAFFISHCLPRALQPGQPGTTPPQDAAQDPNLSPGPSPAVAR

mouse 11β-HSD2 = system: mouse 11β-HSD2; set-up: method as in PMID 16103409; conditions: cited from earlier work
Rat 11β-HSD1 = molecular target: T3, Rat 11β-HSD1 (Rattus norvegicus, UniProt P16232); assay: 11β-HSD1 assay in intact rat Leydig cells; type: cell-based; conditions: intact rat Leydig cells
T3 construct: endogenous in cells; host or cells: primary adult Sprague-Dawley rat Leydig cells
Method: Rat Leydig cells contain the highest 11β-HSD1 activity in all cell types of rat tissues, and were used for rat 11β-HSD1 enzyme sources. Purified rat Leydig cells were obtained from 90-day-old Sprague-Dawley rats by collagenase digestion of the testes followed by Percoll density centrifugation of the cell suspension, according to the previously described method. […] The purity of cell fractions was evaluated by histochemical staining for 3β-hydroxysteroid dehydrogenase activity with […] etiocholanolone as the steroid substrate.
(§1) 11β-HSD1 reductase activity was performed in intact cells using endogenous cofactor NADPH as described previously. […] 25×10^3 cells were added to each tube to initiate the reaction and the reaction mixture was incubated for up to 2 hrs, during which the reaction is within the linear range. At the end of reaction, the reaction was stopped by adding 2 ml ice-cold ether. The steroids were extracted, and the organic layer was dried under nitrogen. The steroids were separated chromatographically on thin layer plates in chloroform and methanol (90∶10, v/v), and the radioactivity was measured using a scanning radiometer (System AR2000, Bioscan Inc., Washington, DC) as described previously. The percentage conversion of 11DHC to CORT or cortisone to cortisol was calculated by dividing the radioactive counts identified as 11-OH-steroids by the total counts.
(§2) The IC50 was determined by adding different concentrations of each compound in the 11β-HSD1 or 11β-HSD2 reaction as described. The mode of inhibition was assayed by adding various concentrations of steroid substrates in the presence of an inhibitor as described.

Human 11β-HSD1 [3] = molecular target: T1, Human 11β-HSD1; assay: 11β-HSD1 assay in intact CHOP cells transfected with human HSD11B1; type: cell-based
Method: An expression plasmid was constructed to express human 11β-HSD1 (HSD11B1) cDNA in pcDNA I expression vector from its original human HSD11B1 vector (pBluescriptSK+).[15]. The Escherichia coli transformants carrying an insert were selected by colony hybridization, and a clone with the insert in the correct orientation relative to the vector T7 promoter was identified by restriction mapping. All transfections were carried out on 80% confluent cultures in 12-well plates. Aliquots of 1 µg HSD11B1 pcDNA I were transfected into mammalian CHOP cells with the FuGENE Transfection Reagent (Roche) according to manufacturer's protocol. Cells were allowed to grow for 24 hours in media containing 10% fetal bovine serum. Then media were removed and cells were harvested for 11β-HSD1 activity assay.
as §1, §2

Rat 11β-HSD2 = molecular target: T4, Rat 11β-HSD2 (Rattus norvegicus, UniProt P50233); assay: 11β-HSD2 assay in rat kidney microsomes; type: biochemical
T4 construct: from tissue; host or cells: rat kidney microsomes
T4 sequence (P50233 1-400): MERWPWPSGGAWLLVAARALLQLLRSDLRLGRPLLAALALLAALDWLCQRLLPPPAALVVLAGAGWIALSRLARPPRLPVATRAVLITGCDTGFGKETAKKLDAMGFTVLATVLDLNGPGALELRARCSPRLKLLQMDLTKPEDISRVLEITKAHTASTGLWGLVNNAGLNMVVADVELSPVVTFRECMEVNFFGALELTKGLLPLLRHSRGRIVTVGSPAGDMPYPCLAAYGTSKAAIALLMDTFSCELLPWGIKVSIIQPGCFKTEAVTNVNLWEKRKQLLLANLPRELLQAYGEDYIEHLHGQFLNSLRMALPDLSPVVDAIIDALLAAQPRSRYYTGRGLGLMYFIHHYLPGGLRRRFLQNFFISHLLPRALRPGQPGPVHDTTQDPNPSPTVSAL
Method: Rats were euthanized by CO2, and livers, testes and kidneys were collected. Rat liver, testis and kidney microsomes were prepared as described previously. In brief, rat liver and kidney were homogenized in […] PBS buffer containing 0.25 M sucrose, and nuclei and large cell debris were removed by centrifugation at 1500× g for 10 min. The post-nuclear supernatants were centrifuged twice at 105,000×g, the resultant microsomal pellets were resuspended. Protein contents were measured by Bio-Rad Dye Reagent Concentrate (Cat.#500-0006). Microsomes were used for measurement of 11β-HSD1 and 11β-HSD2 activities.
The rat and human kidney microsomes were used for 11β-HSD2 sources. 11β-HSD2 activity was performed in the microsome according to a previously described method. […] 8 (rat) or 20 (human) µg kidney microsomes were added to each tube to initiate the reaction and the reaction mixture was incubated for up to 3 hrs, during which the reaction is within the linear range. The rest procedure was similar to 11β-HSD1 assay. The percentage conversion of CORT to 11DHC or cortisol to cortisone was calculated by dividing the radioactive counts identified as 11keto-steroids by the total counts.
as §2

Human 11β-HSD2 [4] = molecular target: T2, Human 11β-HSD2; assay: 11β-HSD2 assay in human kidney microsomes; type: biochemical
Method: The rat and human kidney microsomes were used for 11β-HSD2 sources. 11β-HSD2 activity was performed in the microsome according to a previously described method. In brief, the assay tubes contained 25 nM substrate CORT (for rat) or cortisol (for human), spiked with 30,000 cpm their respective ^3H-11β-hydroxyl steroid, 0.2 mM NAD+ and 0.1 mM DTT in the PBS buffer. 8 (rat) or 20 (human) µg kidney microsomes were added to each tube to initiate the reaction and the reaction mixture was incubated for up to 3 hrs, during which the reaction is within the linear range. The rest procedure was similar to 11β-HSD1 assay. The percentage conversion of CORT to 11DHC or cortisol to cortisone was calculated by dividing the radioactive counts identified as 11keto-steroids by the total counts.
as §2

[5] = molecular target: T5, rat liver microsomal 11β-HSD1 (Rattus norvegicus, UniProt P16232); assay: Mode of inhibition (Lineweaver-Burk), rat liver microsomal 11β-HSD1; type: biochemical; conditions: Lineweaver-Burk plot, substrate 11DHC
T5 construct: Rat liver, testis and kidney microsomes were prepared as described previously; from tissue; host or cells: rat liver microsomes
Method: (§3) The rat testis and liver or human liver microsomes were used for 11β-HSD1 assay. 11β-HSD1 activity was performed in the microsome according to a previously described method. In brief, the assay tubes contained 25 nM substrate 11DHC (for rat) or cortisone (for human), spiked with 30,000 cpm their respective ^3H-11keto-steroid, 0.2 mM NADPH and 5 mM glucose-6-phosphaare in the PBS buffer. 2 µg microsomes were added to each tube to initiate the reaction and the reaction mixture was incubated for up to 2 hrs, during which the reaction is within the linear range. The rest procedure was similar to 11β-HSD1 assay in intact cells.
as §2
(§4) Enzyme data were subjected to nonlinear analysis by GraphPad (Version 5, GraphPad Software Inc., San Diego, CA) for IC50. Lineweaver-Burk plot was used for the mode of inhibition. Data were subjected to analysis by one-way ANOVA followed by Tukey's multiple comparisons testing to identify significant differences between groups when three were calculated. Differences were regarded as significant at P<0.05.

human liver 11β-HSD1 = molecular target: T6, human liver 11β-HSD1 (Homo sapiens, UniProt P28845); assay: Mode of inhibition, human liver 11β-HSD1; type: biochemical; conditions: data not shown
T6 construct: tissue Gentest (Woburn, MA); host or cells: human liver microsomes
Method: as §3, §2, §4

hyperglycemic KKAy mouse = system: hyperglycemic KKAy mouse; set-up: method as in PMID 12190302; conditions: hyperglycemic KKAy mouse model; cited from earlier work

T1 sequence (P28845 whole entry): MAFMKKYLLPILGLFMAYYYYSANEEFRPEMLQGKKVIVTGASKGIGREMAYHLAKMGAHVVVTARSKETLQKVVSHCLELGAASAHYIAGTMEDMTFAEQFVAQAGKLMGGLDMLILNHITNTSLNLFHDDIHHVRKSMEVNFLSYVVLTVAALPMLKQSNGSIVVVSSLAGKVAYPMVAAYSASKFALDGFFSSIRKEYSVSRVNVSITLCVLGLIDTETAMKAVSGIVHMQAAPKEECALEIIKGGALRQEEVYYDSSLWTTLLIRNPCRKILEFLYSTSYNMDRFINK
T6 sequence (P28845 whole entry): as above
T3 sequence (P16232 whole entry): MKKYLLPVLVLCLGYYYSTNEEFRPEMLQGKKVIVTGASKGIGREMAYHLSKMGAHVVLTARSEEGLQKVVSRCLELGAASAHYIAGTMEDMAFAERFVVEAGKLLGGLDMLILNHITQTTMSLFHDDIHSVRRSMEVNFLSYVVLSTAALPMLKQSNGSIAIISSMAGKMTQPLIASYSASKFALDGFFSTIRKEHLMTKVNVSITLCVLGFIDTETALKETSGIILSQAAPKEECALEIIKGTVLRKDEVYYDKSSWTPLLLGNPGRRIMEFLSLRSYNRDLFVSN
T5 sequence (P16232 whole entry): as above

Compound: C1CCc2nnc(C34CC5CC(CC(C5)C3)C4)n2CC1 [MK544]
IC50 (Human 11β-HSD1 [1]): 7.8 nM | IC50 (mouse 11β-HSD1): 98 nM | Selectivity over human 11β-HSD2 (Human 11β-HSD2 [2]): > 450 fold | Selectivity over mouse 11β-HSD2 (mouse 11β-HSD2): > 100 fold

Rat 11β-HSD1 Potency to Curcumin (fold) (Rat 11β-HSD1; relative to curcumin): 31.44 fold | IC50 (Rat 11β-HSD1; read-out: Rat 11β-HSD1 IC50 (nM) in Leydig cells): 184 nM | Human 11β-HSD1 Potency to Curcumin (fold) (Human 11β-HSD1 [3]; CHOP cells transfected with human HSD11B1, relative to curcumin): 24.68 fold | IC50 (Human 11β-HSD1 [3]; CHOP cells transfected with human HSD11B1, read-out: Human 11β-HSD1 IC50 (nM) in CHOP cells): 93 nM | Inhibition of rat 11β-HSD2 at 100 µM (Rat 11β-HSD2; 100 µM): did not inhibit | IC50 (Rat 11β-HSD2; rat kidney microsomes): > 100000 nM | Inhibition of human 11β-HSD2 at 100 µM (Human 11β-HSD2 [4]; 100 µM): did not inhibit | IC50 (Human 11β-HSD2 [4]; human kidney microsomes, read-out: IC50 (nM) Human 11β-HSD2): > 100000 nM
Compound: O=C(/C=C/c1cccs1)/C=C/c1cccs1 [compound 6, (1E,4E)-1,5-bis(thiophen-2-yl) penta-1,4-dien-3-one]
Mode of inhibition of rat 11β-HSD1 [5]: competitive mode; also recorded: competitive inhibitor | Mode of inhibition of human 11β-HSD1 (human liver 11β-HSD1): same mode; also recorded: competitive inhibitor

Compound: BVT2733
IC50 (mouse 11β-HSD1; mouse enzyme): 96 nM | Effect on blood glucose level (hyperglycemic KKAy mouse): significantly lowered
